The test system of this assay is activated sludge. The assay is described as follows: Activated sludge SBR reactor, biological nitrogen removal with added AHLs signal molecule. To be noted: remaining steps as Example 1 (10° C.).

`CCCCCC(=O)N[C@H]1CCOC1=O` [C6-HSL, N-hexanoyl-L-homoserine lactone]: the ammonia-nitrogen removal efficiency by setting is: (10 μg/L after addition) 82.34%; (100 μg/L after addition) 84.29%.

Consider `CCCCCCCC(=O)N[C@H]1CCOC1=O` [C8-HSL, N-octanoyl-L-homoserine lactone], for which the ammonia-nitrogen removal efficiency runs as follows: (10 μg/L after addition) 88.37%; (100 μg/L after addition) 94.54%.

For `CCCCCCCCCCCC(=O)N[C@H]1CCOC1=O` [C12-HSL, N-dodecanoyl-L-homoserine lactone], the ammonia-nitrogen removal efficiency was found to be 90.79% (10 μg/L after addition) and 80.95% (100 μg/L after addition).

The values above are taken from patent US20240262727A1, “METHOD FOR IMPROVING BIOLOGICAL NITROGEN REMOVAL EFFECT OF LOW-TEMPERATURE SEWAGE” (Sichuan University, priority 2023, published 2024).
